Test results published in publication PMC7933434, “Entropy-driven binding of gut bacterial β-glucuronidase inhibitors ameliorates irinotecan-induced toxicity” (Communications Biology, 2021).
Several values for one entry are separate records, joined by “and”; a condition that tells them apart may be missing. Identical values can stand only once. Like-named read-outs stand apart in the source and are kept apart here.

What was measured:
HsGUS (human GUS) = target: T1, HsGUS (human GUS) (Homo sapiens, UniProt P08236); experiment: GUS inhibition assay, hydrolysis of 4-methylumbelliferyl-β-glucuronide, HsGUS; format: biochemical; parameters: GUS activity (hydrolysis rate of MUG): unit not given here
T1 construct: HsGUS was prepared as described[37]; made in house
T1 sequence (P08236 23-651): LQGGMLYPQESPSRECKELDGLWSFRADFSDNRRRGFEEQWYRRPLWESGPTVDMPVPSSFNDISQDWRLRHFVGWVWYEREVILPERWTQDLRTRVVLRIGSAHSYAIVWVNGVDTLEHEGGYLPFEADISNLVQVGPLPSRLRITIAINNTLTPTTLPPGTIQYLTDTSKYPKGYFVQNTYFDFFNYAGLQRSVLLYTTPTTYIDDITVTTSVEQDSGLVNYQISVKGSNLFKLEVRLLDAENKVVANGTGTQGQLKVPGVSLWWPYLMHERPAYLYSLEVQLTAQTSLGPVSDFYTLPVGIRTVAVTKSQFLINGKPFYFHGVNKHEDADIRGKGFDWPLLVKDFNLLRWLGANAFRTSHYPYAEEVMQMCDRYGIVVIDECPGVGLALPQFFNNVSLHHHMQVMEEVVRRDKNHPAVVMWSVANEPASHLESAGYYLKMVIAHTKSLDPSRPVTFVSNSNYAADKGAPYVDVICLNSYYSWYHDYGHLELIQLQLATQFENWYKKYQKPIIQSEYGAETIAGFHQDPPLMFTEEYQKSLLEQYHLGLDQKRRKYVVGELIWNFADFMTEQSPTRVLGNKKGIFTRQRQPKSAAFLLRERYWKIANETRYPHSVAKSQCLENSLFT

[1] = target: EcGUS (Escherichia coli GUS) (Escherichia coli, UniProt P05804); experiment: biochemical
EcGUS (Escherichia coli GUS), sequence (P05804 whole entry): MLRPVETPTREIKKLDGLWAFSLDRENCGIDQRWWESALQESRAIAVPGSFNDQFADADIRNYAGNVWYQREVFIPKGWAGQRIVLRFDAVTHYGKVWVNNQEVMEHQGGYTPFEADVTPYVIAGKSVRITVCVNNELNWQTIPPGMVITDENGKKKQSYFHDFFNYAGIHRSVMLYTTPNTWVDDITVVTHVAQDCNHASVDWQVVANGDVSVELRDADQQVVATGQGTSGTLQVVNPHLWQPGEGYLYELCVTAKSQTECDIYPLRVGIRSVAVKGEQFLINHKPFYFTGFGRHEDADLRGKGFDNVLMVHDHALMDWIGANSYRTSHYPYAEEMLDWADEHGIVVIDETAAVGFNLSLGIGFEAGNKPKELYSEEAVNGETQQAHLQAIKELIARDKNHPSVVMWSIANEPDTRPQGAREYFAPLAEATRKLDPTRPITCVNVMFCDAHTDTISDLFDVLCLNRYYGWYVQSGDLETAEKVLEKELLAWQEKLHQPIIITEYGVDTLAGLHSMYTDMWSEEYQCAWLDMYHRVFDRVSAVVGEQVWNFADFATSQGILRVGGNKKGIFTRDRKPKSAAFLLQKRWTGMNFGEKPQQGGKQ

In the case of `O=C(O)[C@H]1CNC[C@@H](O)[C@@H]1O` [Inhibitor 1, Uronic isofagomine], the “GUS activity (hydrolysis rate of MUG)” value (HsGUS (human GUS); [Inhibitor 1] =6.25 nM, [MUG] 0.4 mM) is reported as 2736.45 and 2863.61, the “GUS activity (hydrolysis rate of MUG)” value (HsGUS (human GUS); [Inhibitor 1] =6.25 nM, [MUG] 0.6 mM) is reported as 3626.7 and 3614.16 and the “GUS activity (hydrolysis rate of MUG)” value (HsGUS (human GUS); [Inhibitor 1] =6.25 nM, [MUG] 0.8 mM) is reported as 4294.49 and 4051.74. The “GUS activity (hydrolysis rate of MUG)” value (HsGUS (human GUS); [Inhibitor 1] =6.25 nM, [MUG] 1.2 mM) was 5041.75 and 5285.84, the “GUS activity (hydrolysis rate of MUG)” value (HsGUS (human GUS); [Inhibitor 1] =6.25 nM, [MUG] 1.6 mM) was 5716.1 and 5569.72 and the “GUS activity (hydrolysis rate of MUG)” value (HsGUS (human GUS); [Inhibitor 1] =6.25 nM, [MUG] 2 mM) was 6253.7 and 6084.56. The “GUS activity (hydrolysis rate of MUG)” value (HsGUS (human GUS); [Inhibitor 1] =12.5 nM, [MUG] 0.1 mM) was 964.973 and 946.536, the “GUS activity (hydrolysis rate of MUG)” value (HsGUS (human GUS); [Inhibitor 1] =12.5 nM, [MUG] 0.2 mM) was 1634.13 and 1650.2 and the “GUS activity (hydrolysis rate of MUG)” value (HsGUS (human GUS); [Inhibitor 1] =12.5 nM, [MUG] 0.4 mM) was 2735.98 and 2661.78. The “GUS activity (hydrolysis rate of MUG)” value (HsGUS (human GUS); [Inhibitor 1] =12.5 nM, [MUG] 0.6 mM) was 3585.06 and 3536.5, the “GUS activity (hydrolysis rate of MUG)” value (HsGUS (human GUS); [Inhibitor 1] =12.5 nM, [MUG] 0.8 mM) was 4058.66 and 4004.34 and the “GUS activity (hydrolysis rate of MUG)” value (HsGUS (human GUS); [Inhibitor 1] =12.5 nM, [MUG] 1.2 mM) was 4753.61 and 4787.97. For the same molecule, the “GUS activity (hydrolysis rate of MUG)” value (HsGUS (human GUS); [Inhibitor 1] =12.5 nM, [MUG] 1.6 mM) was 5496.19 and 5468.5, the “GUS activity (hydrolysis rate of MUG)” value (HsGUS (human GUS); [Inhibitor 1] =12.5 nM, [MUG] 2 mM) was 6215.35 and 6326.21 and the “GUS activity (hydrolysis rate of MUG)” value (HsGUS (human GUS); [Inhibitor 1] =25 nM, [MUG] 0.1 mM) was 888.487 and 880.944. For the same molecule, the “GUS activity (hydrolysis rate of MUG)” value (HsGUS (human GUS); [Inhibitor 1] =25 nM, [MUG] 0.2 mM) was 1602.44 and 1479.41, the “GUS activity (hydrolysis rate of MUG)” value (HsGUS (human GUS); [Inhibitor 1] =25 nM, [MUG] 0.4 mM) was 2621.31 and 2595.47 and the “GUS activity (hydrolysis rate of MUG)” value (HsGUS (human GUS); [Inhibitor 1] =25 nM, [MUG] 0.6 mM) was 3374.76 and 3226.51. The “GUS activity (hydrolysis rate of MUG)” value (HsGUS (human GUS); [Inhibitor 1] =25 nM, [MUG] 0.8 mM) was 3934.08 and 3700.76, the “GUS activity (hydrolysis rate of MUG)” value (HsGUS (human GUS); [Inhibitor 1] =25 nM, [MUG] 1.2 mM) was 4557.18 and 4846.86 and the “GUS activity (hydrolysis rate of MUG)” value (HsGUS (human GUS); [Inhibitor 1] =25 nM, [MUG] 1.6 mM) was 5394.55 and 5298.67. The “GUS activity (hydrolysis rate of MUG)” value (HsGUS (human GUS); [Inhibitor 1] =25 nM, [MUG] 2 mM) was 6010.34 and 6068.98, the “GUS activity (hydrolysis rate of MUG)” value (HsGUS (human GUS); [Inhibitor 1] =50 nM, [MUG] 0.1 mM) was 874.409 and 866.834 and the “GUS activity (hydrolysis rate of MUG)” value (HsGUS (human GUS); [Inhibitor 1] =50 nM, [MUG] 0.2 mM) was 1446.88 and 1448.8. The “GUS activity (hydrolysis rate of MUG)” value (HsGUS (human GUS); [Inhibitor 1] =50 nM, [MUG] 0.4 mM) was 2554.3 and 2362.71, the “GUS activity (hydrolysis rate of MUG)” value (HsGUS (human GUS); [Inhibitor 1] =50 nM, [MUG] 0.6 mM) was 3157.04 and 3034.34 and the “GUS activity (hydrolysis rate of MUG)” value (HsGUS (human GUS); [Inhibitor 1] =50 nM, [MUG] 0.8 mM) was 3775.39 and 3558.36. The “GUS activity (hydrolysis rate of MUG)” value (HsGUS (human GUS); [Inhibitor 1] =50 nM, [MUG] 1.2 mM) was 4410.62 and 4573.1, the “GUS activity (hydrolysis rate of MUG)” value (HsGUS (human GUS); [Inhibitor 1] =50 nM, [MUG] 1.6 mM) was 4956.91 and 5204.72 and the “GUS activity (hydrolysis rate of MUG)” value (HsGUS (human GUS); [Inhibitor 1] =50 nM, [MUG] 2 mM) was 5814.43 and 5846.27. The “GUS activity (hydrolysis rate of MUG)” value (HsGUS (human GUS); [Inhibitor 1] =100 nM, [MUG] 0.1 mM) was 714.467 and 698.837, the “GUS activity (hydrolysis rate of MUG)” value (HsGUS (human GUS); [Inhibitor 1] =100 nM, [MUG] 0.2 mM) was 1267.32 and 1255.83 and the “GUS activity (hydrolysis rate of MUG)” value (HsGUS (human GUS); [Inhibitor 1] =100 nM, [MUG] 0.4 mM) was 2205.11 and 2224.51. For the same molecule, the “GUS activity (hydrolysis rate of MUG)” value (HsGUS (human GUS); [Inhibitor 1] =100 nM, [MUG] 0.6 mM) was 2972.37 and 2813, the “GUS activity (hydrolysis rate of MUG)” value (HsGUS (human GUS); [Inhibitor 1] =100 nM, [MUG] 0.8 mM) was 3383.16 and 3413.02 and the “GUS activity (hydrolysis rate of MUG)” value (HsGUS (human GUS); [Inhibitor 1] =100 nM, [MUG] 1.2 mM) was 4189.2 and 4174.02. For the same molecule, the “GUS activity (hydrolysis rate of MUG)” value (HsGUS (human GUS); [Inhibitor 1] =100 nM, [MUG] 1.6 mM) was 4730.59 and 4939.86, the “GUS activity (hydrolysis rate of MUG)” value (HsGUS (human GUS); [Inhibitor 1] =100 nM, [MUG] 2 mM) was 5626.48 and 5332.35 and the “GUS activity (hydrolysis rate of MUG)” value (HsGUS (human GUS); [Inhibitor 1] =200 nM, [MUG] 0.1 mM) was 493.269 and 528.779. The “GUS activity (hydrolysis rate of MUG)” value (HsGUS (human GUS); [Inhibitor 1] =200 nM, [MUG] 0.2 mM) was 887.805 and 953.041, the “GUS activity (hydrolysis rate of MUG)” value (HsGUS (human GUS); [Inhibitor 1] =200 nM, [MUG] 0.4 mM) was 1572.94 and 1681.59 and the “GUS activity (hydrolysis rate of MUG)” value (HsGUS (human GUS); [Inhibitor 1] =200 nM, [MUG] 0.6 mM) was 2196.34 and 2140.47. The “GUS activity (hydrolysis rate of MUG)” value (HsGUS (human GUS); [Inhibitor 1] =200 nM, [MUG] 0.8 mM) was 2605.47 and 2684.29, the “GUS activity (hydrolysis rate of MUG)” value (HsGUS (human GUS); [Inhibitor 1] =200 nM, [MUG] 1.2 mM) was 3423.7 and 3486.94 and the “GUS activity (hydrolysis rate of MUG)” value (HsGUS (human GUS); [Inhibitor 1] =200 nM, [MUG] 1.6 mM) was 4057.78 and 4000.72. The “GUS activity (hydrolysis rate of MUG)” value (HsGUS (human GUS); [Inhibitor 1] =200 nM, [MUG] 2 mM) was 4782.69 and 4439.05, the Ki [1] was 0.016 µM and the Ki ([1]; 50 mM HEPES pH 7.5, 37 °C) was 0.016 ± 0.002 µM. It also gave a Ki ([1]; source data of Table 1, from plot of apparent Km against [inhibitor] (μM)) of 0.0155 µM.
